Reference: ChEMBL document CHEMBL1201862, “PubChem BioAssay data set” (2004)
The source made the active and inactive calls.

How the values were obtained:
[1] = test system: BJ; experiment: cells; type: functional, cell-based; settings: Homo sapiens
[2] = target: Scavenger receptor class B member 1 (Mus musculus, UniProt Q61009); experiment: inhibitors of SR-BI mediated HDL lipid uptake, dose response, ldlA[mSR-BI] cells, fluorescence, cherry pick (AID 493194); type: functional, cell-based;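 further: cellular uptake of fluorescent DiI-labeled HDL measured as cell fluorescence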
Chain of Scavenger receptor class B member 1 (Q61009 whole entry): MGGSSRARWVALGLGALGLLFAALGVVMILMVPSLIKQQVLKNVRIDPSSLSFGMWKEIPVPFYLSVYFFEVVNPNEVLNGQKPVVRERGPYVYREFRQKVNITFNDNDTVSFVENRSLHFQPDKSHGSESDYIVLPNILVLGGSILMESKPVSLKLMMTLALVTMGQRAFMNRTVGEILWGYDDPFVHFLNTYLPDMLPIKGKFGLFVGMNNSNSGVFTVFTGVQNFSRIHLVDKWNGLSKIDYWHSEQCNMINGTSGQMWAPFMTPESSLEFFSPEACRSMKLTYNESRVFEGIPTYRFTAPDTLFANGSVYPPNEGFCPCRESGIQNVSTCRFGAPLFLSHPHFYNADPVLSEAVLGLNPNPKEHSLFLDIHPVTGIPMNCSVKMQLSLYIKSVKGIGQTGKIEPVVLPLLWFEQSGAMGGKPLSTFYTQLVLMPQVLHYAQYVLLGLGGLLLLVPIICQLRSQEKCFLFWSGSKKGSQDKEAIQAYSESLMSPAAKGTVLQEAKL

[3] = test system: BJ; experiment: cytotoxicity toward BJ-TERT fibroblasts, dose response, cell-based, RAS-independent, luminescence (AID 1933); type: functional; settings: Homo sapiens
[4] = cytotoxicity toward DRD oncogenic fibroblasts, dose response, cell-based, non-viral oncogenic, luminescence (AID 1934); type: functional; settings: Homo sapiens
[5] = test system: BJ; experiment: cytotoxicity toward BJ-TERT-LT-ST fibroblasts, dose response, cell-based, RAS-independent, luminescence (AID 1935); type: functional; settings: Homo sapiens;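 further: BJ fibroblasts immortalized with TERT plus LT and ST oncogenes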
[6] = target: Cyclin-dependent kinase 5/CDK5 activator 1 (Homo sapiens, UniProt Q00535); experiment: CDK5/p35 kinase inhibitors, dose response, biochemical, cherry-picked samples, set 2 (AID 504545)
Chain of Cyclin-dependent kinase 5/CDK5 activator 1 (Q00535 whole entry): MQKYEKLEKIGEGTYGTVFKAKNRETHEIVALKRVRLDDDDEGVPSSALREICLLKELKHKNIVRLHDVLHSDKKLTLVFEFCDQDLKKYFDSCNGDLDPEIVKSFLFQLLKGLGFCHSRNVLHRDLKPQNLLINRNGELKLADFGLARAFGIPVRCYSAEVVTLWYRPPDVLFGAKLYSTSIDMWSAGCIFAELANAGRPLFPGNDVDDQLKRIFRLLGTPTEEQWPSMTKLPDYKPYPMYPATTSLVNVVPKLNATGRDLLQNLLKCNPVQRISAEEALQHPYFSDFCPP
Chain of Cyclin-dependent kinase 5/CDK5 activator 1 (Q15078 whole entry, further chain): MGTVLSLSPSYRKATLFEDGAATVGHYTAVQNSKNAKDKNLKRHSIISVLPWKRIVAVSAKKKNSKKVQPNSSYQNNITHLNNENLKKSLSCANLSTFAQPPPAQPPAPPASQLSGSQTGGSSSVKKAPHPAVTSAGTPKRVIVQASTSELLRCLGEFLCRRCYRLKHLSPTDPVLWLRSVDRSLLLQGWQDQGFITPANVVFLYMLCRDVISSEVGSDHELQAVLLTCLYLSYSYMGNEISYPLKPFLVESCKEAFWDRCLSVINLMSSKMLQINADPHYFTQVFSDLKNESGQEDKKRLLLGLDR

[7] = Cytotoxicity screening for potential Inhibitors of Bacterial Capsule Biogenesis. [Related pubchem assays (depositor defined):AID488970]; type: functional
[8] = target: T1, Sphingosine 1-phosphate receptor 4 (Homo sapiens, UniProt O95977); experiment: S1P4 receptor agonists, human, late-stage follow-up, cell-based, fluorescence, synthesized compounds (AID 463107); type: functional
T1 sequence (O95977 whole entry): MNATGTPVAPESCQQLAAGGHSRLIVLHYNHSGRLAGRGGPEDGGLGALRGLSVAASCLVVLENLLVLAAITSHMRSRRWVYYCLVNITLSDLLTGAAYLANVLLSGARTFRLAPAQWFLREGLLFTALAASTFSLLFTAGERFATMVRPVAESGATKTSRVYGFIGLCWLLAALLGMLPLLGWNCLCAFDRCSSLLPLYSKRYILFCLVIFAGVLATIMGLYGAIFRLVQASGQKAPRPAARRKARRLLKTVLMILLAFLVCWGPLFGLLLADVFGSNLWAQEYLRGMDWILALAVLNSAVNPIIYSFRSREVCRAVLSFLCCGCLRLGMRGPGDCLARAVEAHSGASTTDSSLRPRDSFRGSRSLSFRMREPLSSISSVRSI

[9] = target: Lysosomal acid glucosylceramidase (Homo sapiens, UniProt P04062); experiment: Dose response cell-based high throughput screening assay to identify enhancers of beta-glucosidase activity. [Related pubchem assays: 784 ]; type: functional
[10] = Luminescence Cell-Based Dose Retest to Confirm Inhibitors of Cancer Stem Cells. [Related pubchem assays (depositor defined):AID2717, AID2721]; type: functional; settings: Homo sapiens
[11] = target: Aspartyl aminopeptidase (Plasmodium falciparum 3D7, UniProt Q8I2J3)
Chain of Aspartyl aminopeptidase (Q8I2J3 whole entry): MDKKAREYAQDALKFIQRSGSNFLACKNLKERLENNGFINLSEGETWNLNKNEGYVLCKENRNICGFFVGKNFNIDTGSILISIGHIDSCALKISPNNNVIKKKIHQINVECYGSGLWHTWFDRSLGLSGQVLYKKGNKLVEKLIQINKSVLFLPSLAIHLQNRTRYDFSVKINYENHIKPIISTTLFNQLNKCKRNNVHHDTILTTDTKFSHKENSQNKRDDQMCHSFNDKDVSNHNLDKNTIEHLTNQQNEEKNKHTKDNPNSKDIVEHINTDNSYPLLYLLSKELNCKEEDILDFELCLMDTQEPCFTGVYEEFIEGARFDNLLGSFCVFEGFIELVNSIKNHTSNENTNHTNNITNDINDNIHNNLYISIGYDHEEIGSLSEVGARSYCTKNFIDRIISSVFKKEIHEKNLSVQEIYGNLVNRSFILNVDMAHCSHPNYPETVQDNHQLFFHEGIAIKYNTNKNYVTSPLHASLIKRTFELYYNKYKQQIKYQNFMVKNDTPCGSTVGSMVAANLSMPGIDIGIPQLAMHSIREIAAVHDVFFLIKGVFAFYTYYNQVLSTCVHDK

[12] = target: Procathepsin L (Homo sapiens, UniProt P07711)
Chain of Procathepsin L (P07711 whole entry): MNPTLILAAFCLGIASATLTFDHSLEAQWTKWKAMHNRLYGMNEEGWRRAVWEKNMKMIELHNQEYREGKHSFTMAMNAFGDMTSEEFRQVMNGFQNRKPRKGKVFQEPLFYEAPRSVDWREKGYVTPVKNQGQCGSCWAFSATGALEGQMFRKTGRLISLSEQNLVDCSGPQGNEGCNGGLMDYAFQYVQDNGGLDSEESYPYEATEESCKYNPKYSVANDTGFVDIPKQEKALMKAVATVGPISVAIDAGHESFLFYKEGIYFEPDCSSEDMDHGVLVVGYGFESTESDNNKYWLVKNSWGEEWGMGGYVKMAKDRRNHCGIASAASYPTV

[13] = target: Alkaline phosphatase, placental type (Homo sapiens, UniProt P05187); experiment: PLAP enzyme inhibitors, confirmation, biochemical, luminescence (AID 1512); type: functional
Chain of Alkaline phosphatase, placental type (P05187 whole entry): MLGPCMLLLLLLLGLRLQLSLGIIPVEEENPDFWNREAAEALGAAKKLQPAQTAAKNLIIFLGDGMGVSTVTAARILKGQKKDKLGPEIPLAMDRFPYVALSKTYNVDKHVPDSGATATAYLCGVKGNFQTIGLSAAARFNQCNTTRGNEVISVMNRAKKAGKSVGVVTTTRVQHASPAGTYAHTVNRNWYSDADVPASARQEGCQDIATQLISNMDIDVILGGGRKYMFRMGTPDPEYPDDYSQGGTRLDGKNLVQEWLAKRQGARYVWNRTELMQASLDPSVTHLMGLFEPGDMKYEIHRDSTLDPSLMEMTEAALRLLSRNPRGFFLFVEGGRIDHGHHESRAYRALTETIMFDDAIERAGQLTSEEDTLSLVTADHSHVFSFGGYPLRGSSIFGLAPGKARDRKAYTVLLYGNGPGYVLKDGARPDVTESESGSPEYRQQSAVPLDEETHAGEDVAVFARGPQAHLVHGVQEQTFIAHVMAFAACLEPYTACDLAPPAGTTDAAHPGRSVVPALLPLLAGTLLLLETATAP

[14] = target: T2, Eukaryotic translation initiation factor 2-alpha kinase 3 (Homo sapiens, UniProt Q9NZJ5); experiment: Dose response cell-based high-throughput screening assay to measure PERK inhibition. [Related pubchem assays: 1416 ]; type: functional
T2 sequence (Q9NZJ5 whole entry): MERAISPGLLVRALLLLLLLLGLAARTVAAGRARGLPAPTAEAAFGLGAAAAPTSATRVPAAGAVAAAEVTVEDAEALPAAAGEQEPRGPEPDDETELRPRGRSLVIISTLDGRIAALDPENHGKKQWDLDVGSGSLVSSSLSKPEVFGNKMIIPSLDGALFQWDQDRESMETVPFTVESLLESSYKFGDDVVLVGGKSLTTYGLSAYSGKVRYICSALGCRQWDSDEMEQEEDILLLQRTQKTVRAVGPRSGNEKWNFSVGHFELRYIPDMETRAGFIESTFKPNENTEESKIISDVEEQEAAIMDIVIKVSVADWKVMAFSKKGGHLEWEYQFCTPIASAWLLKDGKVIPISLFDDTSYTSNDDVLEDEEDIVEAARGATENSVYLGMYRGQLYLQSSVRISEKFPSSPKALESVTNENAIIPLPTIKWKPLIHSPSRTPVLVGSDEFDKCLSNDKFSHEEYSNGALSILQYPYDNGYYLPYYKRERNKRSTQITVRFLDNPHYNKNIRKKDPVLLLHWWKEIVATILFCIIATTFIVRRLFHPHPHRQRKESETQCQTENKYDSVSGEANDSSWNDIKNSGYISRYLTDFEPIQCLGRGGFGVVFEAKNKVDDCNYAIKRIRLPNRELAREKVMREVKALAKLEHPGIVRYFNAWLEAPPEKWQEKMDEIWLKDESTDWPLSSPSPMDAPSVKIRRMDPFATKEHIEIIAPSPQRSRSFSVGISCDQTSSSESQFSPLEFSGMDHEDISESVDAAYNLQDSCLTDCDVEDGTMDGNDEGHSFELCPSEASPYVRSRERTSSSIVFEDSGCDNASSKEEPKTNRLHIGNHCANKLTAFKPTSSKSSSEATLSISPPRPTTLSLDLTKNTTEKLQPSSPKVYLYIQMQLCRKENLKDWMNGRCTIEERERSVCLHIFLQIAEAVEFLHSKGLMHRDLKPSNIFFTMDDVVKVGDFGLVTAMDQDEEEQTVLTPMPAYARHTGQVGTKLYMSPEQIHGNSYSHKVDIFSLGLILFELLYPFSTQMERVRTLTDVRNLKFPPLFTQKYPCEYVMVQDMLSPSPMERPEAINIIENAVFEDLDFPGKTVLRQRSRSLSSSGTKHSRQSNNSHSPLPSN

[15] = target: T2, Eukaryotic translation initiation factor 2-alpha kinase 3; experiment: Counterscreen assay for PERK inhibitors: Dose response cell-based high throughput screening assay to measure inhibition of PERK at 6 hours. [Related pubchem assays: 1522, 1416 ]; type: functional
[16] = target: Metabotropic glutamate receptor 4 (Rattus norvegicus, UniProt P31423); experiment: Modulation of the Metabotropic Glutamate Receptor mGluR4: Rat PAM Potency. [Related pubchem assays (depositor defined):AID2437, AID2807]; type: functional
Chain of Metabotropic glutamate receptor 4 (P31423 whole entry): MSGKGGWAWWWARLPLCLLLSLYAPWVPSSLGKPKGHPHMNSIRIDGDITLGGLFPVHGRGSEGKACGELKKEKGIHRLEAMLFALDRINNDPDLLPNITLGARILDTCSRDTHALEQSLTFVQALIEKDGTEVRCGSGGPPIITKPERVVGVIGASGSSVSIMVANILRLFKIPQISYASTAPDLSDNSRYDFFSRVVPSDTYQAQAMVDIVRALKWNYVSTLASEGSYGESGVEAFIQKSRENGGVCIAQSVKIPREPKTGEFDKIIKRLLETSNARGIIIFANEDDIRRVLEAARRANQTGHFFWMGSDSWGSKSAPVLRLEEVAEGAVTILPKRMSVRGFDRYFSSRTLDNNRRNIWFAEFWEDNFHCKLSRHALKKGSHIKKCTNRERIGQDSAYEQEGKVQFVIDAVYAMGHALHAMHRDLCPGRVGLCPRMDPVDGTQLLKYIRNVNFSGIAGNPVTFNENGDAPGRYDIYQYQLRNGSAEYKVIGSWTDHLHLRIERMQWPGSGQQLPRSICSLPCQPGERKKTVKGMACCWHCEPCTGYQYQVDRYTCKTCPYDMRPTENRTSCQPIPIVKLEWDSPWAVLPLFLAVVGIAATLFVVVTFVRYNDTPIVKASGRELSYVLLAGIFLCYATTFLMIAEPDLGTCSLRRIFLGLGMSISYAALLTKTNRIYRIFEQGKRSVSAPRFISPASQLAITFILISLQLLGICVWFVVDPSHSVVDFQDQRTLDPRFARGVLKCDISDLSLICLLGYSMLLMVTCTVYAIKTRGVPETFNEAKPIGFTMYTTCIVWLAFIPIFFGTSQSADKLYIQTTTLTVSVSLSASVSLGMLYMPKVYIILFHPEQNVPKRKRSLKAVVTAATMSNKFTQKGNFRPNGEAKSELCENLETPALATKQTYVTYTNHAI

[17] = target: X-box-binding protein 1 (Homo sapiens, UniProt P17861); type: functional, Cricetulus griseus;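 further: confirmatory dose-response counter-screen serving a CHOP assay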
Chain of X-box-binding protein 1 (P17861 whole entry): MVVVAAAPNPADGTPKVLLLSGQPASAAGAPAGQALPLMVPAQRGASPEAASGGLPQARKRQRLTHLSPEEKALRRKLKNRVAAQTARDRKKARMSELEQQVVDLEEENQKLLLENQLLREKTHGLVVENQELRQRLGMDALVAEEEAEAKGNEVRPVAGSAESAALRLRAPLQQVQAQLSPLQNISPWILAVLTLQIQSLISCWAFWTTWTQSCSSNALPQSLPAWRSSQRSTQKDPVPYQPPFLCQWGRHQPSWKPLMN

Cc1c(C(=O)OCCOC(C)C)[nH]c2c1C(=O)CC(c1ccco1)C2 (configuration not stated)
EC50 [1]: 1.71 µM (inconclusive)
AC50 [2]: 34 µM (active)
EC50 [3]: 0.37 µM (active)
EC50 [4]: 1.28 µM (inconclusive)
EC50 [5]: 0.73 µM (inconclusive)

Cc1nn(-c2ccc(Cl)cn2)c2c1C(=O)CC(C)(C)C2Br (configuration not stated)
AC50 [6]: 89.2 µM (active)

N=C(N)SCCc1cccc(CCSC(=N)N)c1
CC50 [7]: 47.9 µM (active)

O=[N+]([O-])c1ncccc1OCCOc1ccc(Cl)cc1Cl
EC50 [8]: 29.8 µM (inactive)

CCOc1ccc(S(=O)(=O)NCC2CCCO2)c2cccnc12 (configuration not stated)
EC50 [9]: > 10 µM (not active)

COCCNC(=O)NC1(C(F)(F)F)Oc2ccc(Cl)cc2O1 (configuration not stated)
AC50 [10]: 6.47 µM (active)
IC50 [11]: 2.12 µM (active)
IC50 [12]: > 59.6 µM (not active)
IC50 [13]: 6.75 µM (active)

COc1cc(C(C#N)N2CCOCC2)ccc1O (configuration not stated)
EC50 [14]: > 55.7 µM (not active)
EC50 [15]: > 55.7 µM (not active)

CC1(C)[C@@H]2C(=O)N(c3ccc(NC(=O)c4ccccn4)cc3Cl)C(=O)[C@@H]21
EC50 [16]: 0.69 µM (active)

O=C(NCc1ccccc1)c1cc(-c2ccncc2)nc2ccc(S(=O)(=O)N3CCOCC3)cc12
Absolute IC50 (XBP1) [17]: 10 µM
